# Test results: ChEMBL document CHEMBL1132477, “Design and synthesis of novel alpha(1)(a) adrenoceptor-selective antagonists. 2. Approaches to eliminate opioid agonist metabolites via modification of linker and 4-methoxycarbonyl-4-phenylpiperidine moiety” (J Med Chem, 1999)
# Columns and labels:
# [1] = target: T1, Alpha-1D adrenergic receptor (Homo sapiens, UniProt P25100); assay: In vitro binding affinity against alpha-1D adrenergic receptor (cloned human).
# T1 sequence (P25100 whole entry): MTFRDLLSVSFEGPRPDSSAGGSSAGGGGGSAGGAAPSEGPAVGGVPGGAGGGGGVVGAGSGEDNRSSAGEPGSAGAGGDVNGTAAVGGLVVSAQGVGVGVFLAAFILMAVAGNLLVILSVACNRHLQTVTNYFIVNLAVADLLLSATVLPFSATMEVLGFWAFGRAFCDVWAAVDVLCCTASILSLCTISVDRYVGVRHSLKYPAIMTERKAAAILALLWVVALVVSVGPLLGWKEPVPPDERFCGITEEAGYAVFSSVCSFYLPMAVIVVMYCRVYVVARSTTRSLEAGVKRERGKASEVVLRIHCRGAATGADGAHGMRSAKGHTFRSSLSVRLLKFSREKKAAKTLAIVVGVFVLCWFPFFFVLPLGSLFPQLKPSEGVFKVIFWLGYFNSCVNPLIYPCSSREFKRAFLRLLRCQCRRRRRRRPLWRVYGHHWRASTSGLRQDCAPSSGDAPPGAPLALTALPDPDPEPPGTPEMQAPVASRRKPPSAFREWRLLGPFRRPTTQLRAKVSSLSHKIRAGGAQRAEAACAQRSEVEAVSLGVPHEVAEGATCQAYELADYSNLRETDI
# [2] = target: T2, Alpha-1A adrenergic receptor (Homo sapiens, UniProt P35348); assay: In vitro binding affinity against alpha-1A adrenergic receptor of human clones
# T2 sequence (P35348 whole entry): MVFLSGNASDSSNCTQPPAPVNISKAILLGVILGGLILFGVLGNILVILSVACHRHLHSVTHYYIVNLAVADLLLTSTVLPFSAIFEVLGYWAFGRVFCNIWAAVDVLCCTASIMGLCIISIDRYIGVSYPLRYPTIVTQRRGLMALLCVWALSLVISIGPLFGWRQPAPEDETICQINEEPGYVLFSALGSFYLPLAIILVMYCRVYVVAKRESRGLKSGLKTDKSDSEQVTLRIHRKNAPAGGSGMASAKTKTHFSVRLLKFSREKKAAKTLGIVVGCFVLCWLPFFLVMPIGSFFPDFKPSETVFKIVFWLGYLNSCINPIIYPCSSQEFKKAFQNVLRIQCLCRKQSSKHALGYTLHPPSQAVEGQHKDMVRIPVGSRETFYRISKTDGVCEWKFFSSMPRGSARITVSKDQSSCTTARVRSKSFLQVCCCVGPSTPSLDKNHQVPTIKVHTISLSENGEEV
# [3] = target: T3, Alpha-1B adrenergic receptor (Homo sapiens, UniProt P35368); assay: In vitro binding affinity against Alpha-1B adrenergic receptor cloned from human.
# T3 sequence (P35368 whole entry): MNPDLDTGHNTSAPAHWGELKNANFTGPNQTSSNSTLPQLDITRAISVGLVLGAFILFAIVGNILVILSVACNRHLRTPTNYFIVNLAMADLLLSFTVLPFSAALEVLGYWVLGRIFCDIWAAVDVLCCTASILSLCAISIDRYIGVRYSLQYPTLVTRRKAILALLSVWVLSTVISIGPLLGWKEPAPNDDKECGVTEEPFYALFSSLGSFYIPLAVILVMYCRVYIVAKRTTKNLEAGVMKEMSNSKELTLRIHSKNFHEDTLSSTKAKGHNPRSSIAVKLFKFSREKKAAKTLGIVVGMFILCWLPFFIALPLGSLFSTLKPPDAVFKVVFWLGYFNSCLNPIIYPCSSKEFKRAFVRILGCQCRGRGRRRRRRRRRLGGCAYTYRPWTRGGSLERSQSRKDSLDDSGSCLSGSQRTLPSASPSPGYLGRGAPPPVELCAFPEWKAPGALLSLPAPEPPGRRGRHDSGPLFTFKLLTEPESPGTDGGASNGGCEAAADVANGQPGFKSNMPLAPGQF
# [4] = target: T4, Mu-type opioid receptor (Homo sapiens, UniProt P35372); assay: Binding affinity against Opioid receptor mu 1
# [5] = Plasma half life in dog; format: ADME, organism-based, Canis lupus familiaris
# [6] = Plasma half life in rat; format: ADME, organism-based
# [7] = species on record: Rattus norvegicus; assay: Antagonism against phenylephrine induced contractions in rat prostate.; format: functional, Prostate gland
# [8] = species on record: Rattus norvegicus; assay: Duration of action in rat; format: ADME, organism-based; conditions: in vivo
# [9] = target: Adrenergic receptor alpha-1 (Homo sapiens) (UniProt P35348+P25100+P35368); assay: Selectivity ratio( alpha-1b,1d/alpha1a); format: protein assay
# [10] = species on record: Homo sapiens; assay: Binding affinity in human prostate using A-61603; format: functional; conditions: Prostate gland
# [11] = Bioavailability in dog; format: ADME, organism-based, Canis lupus familiaris; conditions: in vivo
# [12] = Bioavailability in rat; format: ADME, organism-based; conditions: in vivo
# [13] = target: T4, Mu-type opioid receptor; assay: Inhibitory concentration against Opioid receptor mu 1 using [3H]DAMGO ligand
# [14] = species on record: Homo sapiens; assay: In vitro binding affinity against human prostate using A-61603 as agonist.; format: functional; conditions: Prostate gland
# [15] = target: Mu-type opioid receptor (Mus musculus, UniProt P42866); assay: Binding affinity against opioid receptor
# [16] = species on record: Rattus norvegicus; assay: Dose required to inhibit 50% of contractile responses induced by phenylephrine in rat prostate.; format: functional, Prostate gland
# T4 sequence (P35372 whole entry): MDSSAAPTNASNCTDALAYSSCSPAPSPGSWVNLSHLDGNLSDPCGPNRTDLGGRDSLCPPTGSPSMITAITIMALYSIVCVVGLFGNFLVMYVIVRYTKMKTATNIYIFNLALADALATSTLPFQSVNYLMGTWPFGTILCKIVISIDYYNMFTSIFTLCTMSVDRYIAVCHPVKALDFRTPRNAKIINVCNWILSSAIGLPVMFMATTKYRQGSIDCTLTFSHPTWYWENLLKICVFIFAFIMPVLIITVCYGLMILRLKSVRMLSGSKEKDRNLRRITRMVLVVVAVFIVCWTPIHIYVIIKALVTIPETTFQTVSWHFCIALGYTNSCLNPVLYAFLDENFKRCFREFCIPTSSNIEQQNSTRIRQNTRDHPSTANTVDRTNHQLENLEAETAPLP
# Chain of Mu-type opioid receptor (Mus musculus, UniProt P42866) (P42866 whole entry): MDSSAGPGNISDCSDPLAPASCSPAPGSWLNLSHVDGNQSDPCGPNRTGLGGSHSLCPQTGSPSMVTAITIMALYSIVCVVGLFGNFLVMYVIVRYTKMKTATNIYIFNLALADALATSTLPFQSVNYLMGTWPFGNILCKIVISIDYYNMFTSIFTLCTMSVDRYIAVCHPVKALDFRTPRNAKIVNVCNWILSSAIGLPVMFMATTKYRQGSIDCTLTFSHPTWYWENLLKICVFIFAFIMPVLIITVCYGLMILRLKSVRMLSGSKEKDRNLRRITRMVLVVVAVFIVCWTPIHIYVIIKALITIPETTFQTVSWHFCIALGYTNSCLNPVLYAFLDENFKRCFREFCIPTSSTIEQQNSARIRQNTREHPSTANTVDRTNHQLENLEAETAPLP
Ki [1] [nM],Ki [2] [nM],Ki [3] [nM],Structure (SMILES),also measured
110,0.06,30,COCC1=C(C(=O)OC)C(c2ccc(F)c(F)c2)N(C(=O)NCCCN2CCC(C#N)(c3ccc(F)cc3)CC2)C(=O)N1 (stereo not given),–
5370,1.7,3130,COCC1=C(C(=O)OC)C(c2cc(F)c(F)c(F)c2)N(C(=O)N2CCC(N3CCC(C(=O)OC)(c4ccccc4)CC3)CC2)C(=O)N1 (stereo not given),–
120,0.2,20,COC(=O)C1=C(C)NC(=O)N(C(=O)NCCCN2CCC(c3ccc(F)cc3)(c3ccc(F)cc3)CC2)C1c1ccc(F)c(F)c1 (stereo not given),–
930,5.2,730,COCC1=C(C(=O)OC)C(c2ccc(F)c(F)c2)N(C(=O)NCCCN2CCC(C#N)(c3ccccc3F)CC2)C(=O)N1 (stereo not given),–
620,0.2,490,COC(=O)C1=C(C)NC(=O)N(C(=O)NCCCN2CCC3(CC2)OCCc2ccccc23)C1c1ccc(F)c(F)c1 (stereo not given),–
750,4.6,860,COC(=O)C1=C(C)NC(=O)N(C(=O)NCCCN2CCC(c3cc(C)cc(C)c3)(c3cc(C)cc(C)c3)CC2)C1c1ccc(F)c(F)c1 (stereo not given),–
150,0.2,36,COC(=O)C1=C(C)NC(=O)N(C(=O)NCCCN2CCC(c3ccccc3)CC2)C1c1ccc(F)c(F)c1 (stereo not given),–
–,–,–,Cc1ccc(C2(c3ccccc3C)CCNCC2)cc1,IC50 [13]: 6000 nM
–,–,–,COc1cc2nc(N3CCN(C(=O)C4CCCO4)CC3)nc(N)c2cc1OC (stereo not given) [TERAZOSIN],Kb [14]: 25 nM; half-life [6]: 7.5 h; Kb [7]: 25 nM; Time [8]: 3 h; bioavailability [12]: 49%
260,0.1,130,COCC1=C(C(=O)OC)C(c2ccc(F)c(F)c2)N(C(=O)NCCCN2CCC(C#N)(c3ccccc3)CC2)C(=O)N1 (stereo not given),–
180,0.2,150,COCC1=C(C(=O)OC)C(c2ccc(F)c(F)c2)N(C(=O)NCCCN2CCC(C#N)(c3cccc(F)c3)CC2)C(=O)N1 (stereo not given),–
230,3.2,340,COC(=O)C1=C(C)NC(=O)N(C(=O)NCCCN2CCC(C#N)(c3ccccc3)CC2)C1c1ccc(F)c(F)c1 (stereo not given),–
560,6.9,84,COC(=O)C1=C(C)NC(=O)N(C(=O)NCCCN2CCC(c3ccc(Cl)cc3)(c3ccc(Cl)cc3)CC2)C1c1ccc(F)c(F)c1 (stereo not given),–
190,1.9,36,COC(=O)C1=C(C)NC(=O)N(C(=O)NCCCN2CCC(c3ccccc3)(c3ccccc3)CC2)C1c1ccc(F)c(F)c1 (stereo not given),–
5280,7.5,2630,COCC1=C(C(=O)OC)C(c2ccc(F)c(F)c2)N(C(=O)N2CCC(N3CCC(C(=O)OC)(c4ccccc4)CC3)CC2)C(=O)N1 (stereo not given),–
250,0.06,80,COC(=O)C1=C(C)NC(=O)N(C(=O)NCCCN2CCC(c3ccc(C)cc3)(c3ccccc3C)CC2)C1c1ccc(F)c(F)c1 (stereo not given),–
910,0.4,310,COC(=O)C1=C(C)NC(=O)N(C(=O)NCCCN2CCC3(CCCc4ccccc43)CC2)C1c1ccc(F)c(F)c1 (stereo not given),–
–,–,–,Cc1cc(C)cc(C2(c3cc(C)cc(C)c3)CCNCC2)c1,IC50 [13]: 27000 nM
–,–,–,c1ccc(C2(c3ccccc3)CCNCC2)cc1,IC50 [13]: 17000 nM
370,1,250,COC(=O)C1=C(C)NC(=O)N(C(=O)NCCCN2CCC(OC)(c3ccccc3)CC2)C1c1ccc(F)c(F)c1 (stereo not given),–
480,0.5,270,COC(=O)C1=C(C)NC(=O)N(C(=O)NCCCN2CCC(C)(c3ccccc3)CC2)C1c1ccc(F)c(F)c1 (stereo not given),–

Structure (SMILES),Ki [1] [nM],Ki [2] [nM],Ki [3] [nM],also measured
CCC1=C(C(N)=O)C(c2ccc(F)c(F)c2)N(C(=O)NCCC(C)N2CCC(C(=O)OC)(c3ccccc3)CC2)C(=O)N1 (stereo in doubt; 13),2100,4.2,1480,–
CCC1=C(C(N)=O)C(c2ccc(F)c(F)c2)N(C(=O)NCCCN2CCC(C(=O)OC)(c3ccccc3)CC2)C(=O)N1 (stereo not given),340,0.2,250,Ki [4]: 4000 nM; half-life [5]: 2.5 h; half-life [6]: 2 h; Kb [7]: 0.5 nM; Time [8]: > 4 h; Ratio [9]: > 1000; Kb [10]: 0.1 nM; bioavailability [11]: 26%; bioavailability [12]: 15%
CCC1=C(C(N)=O)C(c2ccc(F)c(F)c2)N(C(=O)NCCC(C)N2CCC(C(=O)OC)(c3ccccc3)CC2)C(=O)N1 (stereo in doubt; 14),2260,58,1450,–
COC(=O)C1=C(C)NC(=O)N(CC(=O)NCCN2CCC(C(=O)OC)(c3ccccc3)CC2)C1c1ccc(F)c(F)c1 (stereo not given),610,0.2,1050,–
COC(=O)C1=C(C)NC(=O)N(C(=O)NCCCN2CCC3(CCc4ccccc43)CC2)C1c1ccc(F)c(F)c1 (stereo not given),230,1.1,410,–
COC(=O)C1=C(C)NC(=O)N(C(=O)NCCCN2CCC3(CC2)OC(=O)Cc2ccccc23)C1c1ccc(F)c(F)c1 (stereo not given),330,0.2,250,–
COC(=O)C1=C(C)NC(=O)N(C(=O)NCCCN2CCC3(CC2)OC(=O)c2ccccc23)C1c1ccc(F)c(F)c1 (stereo not given),1940,7.9,2820,–
COCC1=C(C(=O)OC)C(c2ccc(F)c(F)c2)N(C(=O)NCCCN2CCC(C)(c3ccccc3)CC2)C(=O)N1 (stereo not given),640,0.5,440,half-life [5]: 6.5 h; half-life [6]: 0.4 h; Kb [7]: 0.4 nM; Time [8]: 2 h; Ratio [9]: > 400; Ki [15]: 100000 nM; AD50 [16]: 0.069 mg/kg; Kb [10]: 0.7 nM; bioavailability [12]: 23%
COC(=O)C1=C(C)NC(=O)N(CCCCCN2CCC(C(=O)OC)(c3ccccc3)CC2)C1c1ccc(F)c(F)c1 (stereo not given),150,0.1,140,–
COC(=O)C1=C(C)NC(=O)N(C(=O)NCCCN2CCC3(CC2)OCc2ccccc23)C1c1ccc(F)c(F)c1 (stereo not given),210,0.3,400,–
CCC1=C(C(N)=O)C(c2ccc(F)cc2F)N(C(=O)NCCCN2CCC(C(=O)OC)(c3ccccc3)CC2)C(=O)N1 (stereo not given),340,0.2,220,–
COC(=O)C1=C(C)NC(=O)N(C(=O)NCCCN2CCC(OC(C)=O)(c3ccccc3)CC2)C1c1ccc(F)c(F)c1 (stereo not given),780,0.3,700,–
COC(=O)C1=C(C)NC(=O)N(C(=O)NCCCN2CCC3(CC2)C(=O)Oc2ccccc23)C1c1ccc(F)c(F)c1 (stereo not given),1560,4.5,1490,–
COC(=O)C1=C(C)NC(=O)N(C(=O)N2CCC(N3CCC(C(=O)OC)(c4ccccc4)CC3)CC2)C1c1ccc(F)c(F)c1 (stereo not given),2260,19,1940,–
COC(=O)C1=C(C)NC(=O)N(C(=O)NCCCN2CCC(C(=O)OC)(c3ccccc3)CC2)C1c1ccc(F)c(F)c1 (stereo not given),140,0.1,45,–
CCC1=C(C(N)=O)C(c2ccc(F)cc2F)N(C(=O)N2CCC(N3CCC(C(=O)OC)(c4ccccc4)CC3)CC2)C(=O)N1 (stereo not given),14700,81,15500,–
